Assays:
[1] = tested on: human glioblastoma (U87) cells; assay: Tumor growth of stably transfected U87 cells in athymic nude mice; format: in vivo; conditions: 10^7 transfected U87 cells s.c. in athymic nude mice
Description: Transfections and stable expression in the human glioblastoma cell line U87 were performed using a liposomal reagent (Lipofectin™) (Gibco/BRL; Gaithersburg, Md.), as described. Cells were cultured in 162 cm^2 flasks in complete DMEM. On the day of injection, cells were removed by trypsinization, rinsed twice with Hanks balanced salt solution (HBSS, without phenol red; Gibco/BRL), and resuspended in 300 μL HBSS. Cells (10^7) from exponentially growing cultures of stable U87 transfectants were injected subcutaneously between the scapulae of 9-week-old athymic nude mice (Harlan Sprague-Dawley, nu/nu) using a 1 cc tuberculin syringe equipped with a 23-gauge needle. Two-dimensional measurements of tumors were obtained with vernier calipers.

[2] = PDGF-BB expressed in Saccharomyces cerevisiae, Craig et al. (1992); cited from earlier work
[3] = Heparin-agarose in vitro batch binding assay; conditions: 200 mM NaCl, 40 mM Hepes pH 7.4; 3 μg protein; bound fraction by ELISA
Description: Mixtures containing 300 μL of a 50:50 slurry of heparin-agarose in 200 mM NaCl, 40 mM Hepes, pH 7.4 were incubated with 3 μg of PDGF-BB proteins for 15 min at 23° C. Supernatants were obtained by microcentrifugation and collected with a 23 G needle. Pellets were washed with 300 μL of buffer, which was combined with the first supernatant ("unbound" PDGF). Pellets were then washed twice with 150 μL of buffer containing 1 M NaCl, and supernatants were pooled (high salt wash fraction, or "bound" PDGF). PDGF-BB content of bound and unbound fractions were determined by ELISA.

PDGF α-receptor [4] = assay: In vitro PDGF receptor autophosphorylation in A204 cells; format: cell-based; conditions: 170 kDa PDGF receptor species
Description: In vitro assays of PDGF receptor autophosphorylation were conducted essentially as described. […] ATP (3000 Ci/mmol) for 10 min at 30° C. Immunoprecipitates were analyzed by SDS-PAGE (6% polyacrylamide).

PDGF β-receptor [5] = assay: Radioreceptor assay (RRA), competition with [125I]PDGF-BB in R52 rat mesangial cells; format: binding; conditions: R52 cells (β isotype); [125I]PDGF-BB radioligand; Pichia-expressed protein; ALLFIT fit
Description: (§1) Radioreceptor assays were conducted in A204 and rat mesangial cells (RMC, R52 line) as described previously using 20,000 cpm of [^125 I]PDGF-BB (1200 Ci/mmol; Amersham, Buckinghamshire, England) as radioligand and unlabeled recombinant PDGF-BB proteins as competitor. Mitogenic activities of recombinant PDGF-BB proteins were determined by measuring [^3 H]thymidine incorporation into cells as described.

PDGF β-receptor [6] = assay: In vitro PDGF receptor autophosphorylation in R52 cells; format: cell-based, rat; conditions: 170 kDa PDGF receptor species
Description: In vitro assays of PDGF receptor autophosphorylation were conducted essentially as described. A204 and R52 cells (obtained from the American Type Culture Collection (ATCC) were grown to near confluence on 100-mm plastic dishes and maintained in low mitogenicity medium for 24 h. Cells were pre-chilled at 4° C. for 60 min and then incubated with PDGF-BB preparations for 10 min at 4° C. Cell lysates were incubated with either anti-PDGFRα or anti-PDGFRβ IgG (Santa Cruz Biotechnologies) for 60 min at 4° C., centrifuged for 10 min and incubated in fresh tubes containing protein A-agarose (Sigma) for 60 min at 4° C. Kinase assays were performed in 25 μL kinase buffer (20 mM Tris HCl, 1 mM DTT, 10 mM MnCl2, pH 7.5) and 5 μCi [γ-^32 P] ATP (3000 Ci/mmol) for 10 min at 30° C. Immunoprecipitates were analyzed by SDS-PAGE (6% polyacrylamide).

NR6 cells = assay: Mitogenesis, [3H]thymidine incorporation in NR6 cells; format: cell-based; conditions: NR6 cells (primarily α-receptors), ALLFIT fit
Description: as §1

PDGF α-receptor [7] = assay: Radioreceptor assay (RRA), competition with [125I]PDGF-BB in A204 cells; format: binding; conditions: A204 cells (α isotype only); [125I]PDGF-BB radioligand; Pichia-expressed protein; ALLFIT fit
Description: as §1

Substance	effect of overexpression on U87 tumor growth in vivo vs Neo controls (in words) [1]	Structure (%) Beta [2] [%]	Structure (%) Helix [2] [%]	Structure (%) Random [2] [%]	heparin-binding, protein in the bound fraction [3] [%]	induction of α-receptor autophosphorylation (in words) (PDGF α-receptor [4])	RRA: IC50 β (PDGF β-receptor [5]) [ng/mL]	induction of β-receptor autophosphorylation (in words) (PDGF β-receptor [6])	Mitogenesis ED50 (NR6 cells) [ng/mL]	RRA: IC50 α (PDGF α-receptor [7]) [ng/mL]
A-WT-RKK: wild-type PDGF A-chain overexpressed from cDNA in stably transfected U87 cells	not significantly different	–	–	–	–	–	–	–	–	–
PDGF-BB: wild-type human PDGF-BB expressed in Saccharomyces cerevisiae, CD data as reported by Craig et al. (1992)	–	51.0	4.0	45.0	–	–	–	–	–	–
WT-RKK: human PDGF B-chain (PDGF-BB homodimer) with wild-type loop III residues Arg Lys Lys (RKK)	not significantly different	–	–	–	~100	dose-dependent autophosphorylation	4.0	dose-dependent autophosphorylation	52	9.2

From US6194169A, “Enhanced expression of human platelet-derived growth factor in Pichia pastoris” (The University of Kentucky Research Foundation, priority 1998, dated 2001)
